# Source: patent US20090099213A1, “Ortho-Condensed Pyridine and Pyrimidine Derivatives (e.g., Purines) as Protein Kinases Inhibitors” (Astex Therapeutics Limited, priority 2004, published 2009)
# Read-outs that look alike come from different tables or passages of the source.
# Tests used:
# PKB-PIF = biological target: T1, PKB-PIF (Homo sapiens, UniProt P31751); assay: Measurement of PKB kinase inhibitory activity (IC50), radiometric filter plate assay; assay type: biochemical
# T1 construct: fusion partner; made in house
# From the text: The inhibition of protein kinase B (PKB) activity by compounds can be determined essentially as described by Andjelkovic et al. (Mol. Cell. Biol. 19, 5061-5072 (1999)) but using a fusion protein described as PKB-PIF and described in full by Yang et al (Nature Structural Biology 9, 940-944 (2002)). The protein is purified and activated with PDK1 as described by Yang et al. The peptide AKTide-2T (H-A-R-K-R-E-R-T-Y-S-F-G-H-H-A-OH) obtained from Calbiochem (#123900) is used as a substrate. A final concentration of 0.6 nM enzyme is used in a buffer that includes 20 mM MOPS pH 7.2, 30 μM ATP/γ^33P-ATP and 25 μM substrate. Compounds are added in DMSO solution to a final DMSO concentration of 2.5%. The reaction is allowed to proceed for 20 minutes before addition of excess orthophosphoric acid to quench activity. The reaction mixture is transferred to a phosphocellulose filter plate where the peptide binds and the unused ATP is washed away. After washing, scintillant is added and the incorporated activity measured by scintillation counting.
# The % inhibition of the PKB activity is calculated and plotted in order to determine the concentration of test compound required to inhibit 50% of the PKB activity (IC50).
# PKA catalytic domain = biological target: T2, PKA catalytic domain (Homo sapiens, UniProt P17612); assay: Measurement of PKA kinase inhibitory activity (IC50), radiometric filter plate assay; assay type: biochemical; details: 1 nM enzyme, 40 μM ATP, 20 minutes
# T2 construct: using the PKA catalytic domain from Upstate Biotechnology (#14-440); purchased Upstate Biotechnology 14-440
# Description: Compounds of the invention can be tested for PK inhibitory activity using the PKA catalytic domain from Upstate Biotechnology (#14-440) and the 9 residue PKA specific peptide ([…]), also from Upstate Biotechnology (#12-257), as the substrate. A final concentration of 1 nM enzyme is used in a buffer that includes 20 mM MOPS pH 7.2, 40 μM ATP/γ^33P-ATP and […] substrate. Compounds are added in dimethylsulphoxide (DMSO) solution to a final DMSO concentration of 2.5%. The reaction is allowed to proceed for 20 minutes before addition of excess orthophosphoric acid to quench activity. Unincorporated γ^33P-ATP is then separated from phosphorylated proteins on a Millipore MAPH filter plate. The plates are washed, scintillant is added and the plates are then subjected to counting on a Packard Topcount.
# The % inhibition of the PKA activity is calculated and plotted in order to determine the concentration of test compound required to inhibit 50% of the PKA activity (IC50).
# [1] = 0.6 nM enzyme, 30 μM ATP, 25 μM AKTide-2T substrate, 20 minutes, read-out: IC50 (PKB activity)
# T1 sequence (P31751 with tags, fused parts or gaps limits assumed): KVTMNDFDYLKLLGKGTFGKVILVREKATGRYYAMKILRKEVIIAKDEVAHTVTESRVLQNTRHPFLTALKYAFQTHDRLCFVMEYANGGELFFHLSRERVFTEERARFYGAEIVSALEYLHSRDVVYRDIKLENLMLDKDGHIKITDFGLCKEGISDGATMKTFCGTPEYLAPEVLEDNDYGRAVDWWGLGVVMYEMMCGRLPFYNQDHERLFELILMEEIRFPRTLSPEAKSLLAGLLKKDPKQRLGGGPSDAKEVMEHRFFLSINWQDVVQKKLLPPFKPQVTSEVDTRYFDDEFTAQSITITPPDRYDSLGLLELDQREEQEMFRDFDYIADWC
SMILES,IC50 (PKB-PIF; [1]) [µM],IC50 (PKA catalytic domain) [µM],IC50 (PKB-PIF) [µM]
"NCCc1ccc(-c2ncnc3[nH]cnc23)cc1 [Example 9, 2-(4-(9H-Purin-6-yl)phenyl)ethylamine]",< 50,–,–
"NC(CCNc1ncnc2[nH]cnc12)c1ccc(Cl)cc1 (centres unmarked) [Example 5, 1-(4-Chlorophenyl)-N^3-(9H-purin-6-yl)propane-1,3-diamine]",< 10,< 10,–
"CNCc1cccc(-c2ncnc3[nH]cnc23)c1 [Example 7, Methyl-(3-(9H-purin-6-yl)benzyl)amine]",< 10,< 10,–
"NC(=O)C1CCN(c2ncnc3[nH]cnc23)CC1 [Example 11, 1-(9H-Purin-6-yl)piperidine-4-carboxylic Acid Amide]",< 50,–,–
"NCC1CCN(c2ncnc3[nH]cnc23)CC1 [Example 12, C-[1-(9H-Purin-6-yl)piperidin-4-yl]methylamine]",< 10,< 10,–
"NC(c1ccccc1)C1CCN(c2ncnc3[nH]c(=O)[nH]c23)CC1 (centres unmarked) [Example 13, 6-[4-(Aminophenylmethyl)piperidin-1-yl]-7,9-dihydropurin-8-one]",< 10,–,–
"CNCCCNc1ncnc2[nH]cnc12 [Example 1, N-Methyl-N′-(9H-purin-6-yl)-propane-1,3-diamine]",< 10,–,–
"NCCc1cccc(-c2ncnc3[nH]cnc23)c1 [Example 10, 2-(3-(9H-purin-6-yl)phenyl)ethylamine]",–,–,< 10
"NCCCOc1cccc(-c2ncnc3[nH]cnc23)c1 [Example 16, 3-[3-(9H-Purin-6-yl)-phenoxy]-propylamine]",< 10,–,–
"NC(c1ccc(Cl)cc1)C1CCN(c2ncnc3[nH]c(=O)[nH]c23)CC1 (centres unmarked) [Example 14, 6-[4-(Amino(4-chlorophenyl)methyl)piperidin-1-yl]-7,9-dihydropurin-8-one]",< 10,< 10,–
"NC(CCNc1ncnc2[nH]cnc12)c1ccc(F)cc1 (centres unmarked) [Example 3, 1-(4-Fluorophenyl)-N^3-(9H-purin-6-yl)propane-1,3-diamine]",< 10,–,–
"N#CCc1ccc(-c2ncnc3[nH]cnc23)cc1 [Example 8, (4-(9H-purin-6-yl)phenyl)acetonitrile]",< 50,–,–
"NCC1CCN(c2ncnc3[nH]c(=O)[nH]c23)CC1 [Example 15, 6-(4-Aminomethylpiperidin-1-yl)-7,9-dihydropurin-8-one]",< 10,–,–
"NC(CCNc1ncnc2[nH]c(=O)[nH]c12)c1ccc(F)cc1 (centres unmarked) [Example 4, 6-[3-Amino-3-(4-fluorophenyl)propylamino]-7,9-dihydropurin-8-one]",< 10,< 150,–
"CNCCCNc1ncnc2[nH]c(=O)[nH]c12 [Example 2, 6-(3-Methylamino-propylamino)-7,9-dihydro-purin-8-one]",< 10,–,–
"CNCc1ccc(-c2ncnc3[nH]cnc23)cc1 [Example 6, Methyl-(4-(9H-purin-6-yl)benzyl)amine]",< 10,< 10,–

# Now from value to compound, other results behind:
IC50 (PKB-PIF; [1]) [µM],IC50 (PKA catalytic domain) [µM],SMILES,IC50 (PKB-PIF) [µM]
< 10,–,"NC(c1ccc(Cl)cc1)c1ccc(-c2ncnc3[nH]cnc23)cc1 (centres unmarked) [Example 28, C-(4-Chloro-phenyl)-C-[4-(9H-purin-6-yl)-phenyl]-methylamine]",–
< 10,< 10,"NC(Cc1ccccc1)c1ccc(-c2ncnc3[nH]cnc23)cc1 (centres unmarked) [Example 20, 2-Phenyl-1-[4-(9H-purin-6-yl)-phenyl]-ethylamine]",–
< 10,–,"NC(c1ccccc1)C1CCN(c2ncnc3[nH]ccc23)CC1 (centres unmarked) [Example 24, C-Phenyl-C-[1-(7H-pyrrolo[2,3-d]pyrimidin-4-yl)-piperidin-4-yl]-methylamine]",–
< 10,–,"NC(c1ccccc1)c1ccc(-c2ncnc3[nH]cnc23)cc1 (centres unmarked) [Example 19, C-Phenyl-C-[4-(9H-purin-6-yl)-phenyl]-methylamine]",–
< 10,–,"NC(c1ccc(Cl)cc1)C1CCN(c2ncnc3[nH]cnc23)CC1 (centres unmarked) [Example 26, C-(4-Chloro-phenyl)-C-[1-(9H-purin-6-yl)-piperidin-4-yl]-methylamine]",–
< 10,< 10,"NCC1CCCN(c2ncnc3[nH]ccc23)C1 (centres unmarked) [Example 31, C-[1-(7H-Pyrrolo[2,3-d]pyrimidin-4-yl)piperidin-3-yl]methylamine]",–
< 50,–,"NC(Cc1ccccc1)C1CCN(c2ncnc3[nH]c(=O)[nH]c23)CC1 (centres unmarked) [Example 21, 6-[4-(1-Amino-2-phenylethyl)piperidin-1-yl]-7,9-dihydropurin-8-one]",–
< 10,< 10,"Clc1ccc(C2(c3ccc(-c4ncnc5[nH]ccc45)cc3)CCNCC2)cc1 [Example 23, 4-{4-[4-(4-Chloro-phenyl)-piperidin-4-yl]-phenyl}-7H-pyrrolo[2,3-d]pyrimidine]",–
< 10,< 10,"NCC1CCN(c2ncnc3[nH]ncc23)CC1 [Example 17, C-[1-(1H-Pyrazolo[3,4-d]pyrimidin-4-yl)-piperidin-4-yl]-methylamine]",–
< 10,< 10,"NC(c1ccc(Cl)cc1)C1CCN(c2ncnc3[nH]ccc23)CC1 (centres unmarked) [Example 25, C-4-Chlorophenyl-C-[1-(7H-pyrrolo[2,3-d]pyrimidin-4-yl)-piperidin-4-yl]-methylamine]",–
< 10,< 10,"CNCC(c1ccc(Cl)cc1)c1ccc(-c2ccnc3[nH]ccc23)cc1 (centres unmarked) [Example 30, {2-(4-Chloro-phenyl)-2-[4-(1H-pyrrolo[2,3-b]pyridin-4-yl)-phenyl]-ethyl}-methyl-amine]",–
< 10,< 10,"NC(c1ccc(Cl)cc1)C1CCN(c2ccnc3[nH]ccc23)CC1 (centres unmarked) [Example 29, C-(4-Chlorophenyl)-C-[1-(1H-pyrrolo[2,3-b]pyridin-4-yl)piperidin-4-yl]methylamine]",–
< 10,< 10,"NCC1CCN(c2ncnc3[nH]ccc23)CC1 [Example 18, C-[1-(7H-Pyrrolo[2,3-d]pyrimidin-4-yl)-piperidin-4-yl]-methylamine]",–
< 10,–,"Clc1ccc(C2(c3ccc(-c4ccnc5[nH]ccc45)cc3)CCNCC2)cc1 [Example 27, 4-{4-[4-(4-Chloro-phenyl)-piperidin-4-yl]-phenyl}-1H-pyrrolo[2,3-b]pyridine]",–
< 10,–,"NC(c1ccc(Cl)cc1)C1CCN(c2ccnc3[nH]ccc23)CC1 (single isomer, unassigned) [Example 32, C-(4-Chlorophenyl)-C-[1-(1H-pyrrolo[2,3-b]pyridin-4-yl)piperidin-4-yl]methylamine]",–
< 10,< 10,"Clc1ccc(C2(c3ccc(-c4ncnc5[nH]cnc45)cc3)CCNCC2)cc1 [Example 22, 6-(4-[4-(4-Chlorophenyl)-piperidin-4-yl)-phenyl)-9H-purine]",–
